IC50 and GI50 data for seven compounds are collected here from patent publication US9834571B2, “Compounds for inhibiting cell proliferation in EGFR-driven cancers” (ARIAD Pharmaceuticals, Inc., priority 2012, dated 2017).

Like-named read-outs stand apart in the source and are kept apart here.

For experiment [1], the target named is EGFR L858R/T790M (Homo sapiens, UniProt P00533, L858R/T790M). Nature of the experiment: Kinase inhibitory activity against EGFR bearing the L858R/T790M double mutation. The format is biochemical. Conditions: 10 μM ATP, read-out: IC50 for kinase inhibition, EGFR L858R T790M. Summed up: (§1)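 Singlicate 10 pt curves; top conc. 3 μM; ATP 10 μM.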
EGFR L858R/T790M, sequence (P00533 25-1210 T790M/L858R): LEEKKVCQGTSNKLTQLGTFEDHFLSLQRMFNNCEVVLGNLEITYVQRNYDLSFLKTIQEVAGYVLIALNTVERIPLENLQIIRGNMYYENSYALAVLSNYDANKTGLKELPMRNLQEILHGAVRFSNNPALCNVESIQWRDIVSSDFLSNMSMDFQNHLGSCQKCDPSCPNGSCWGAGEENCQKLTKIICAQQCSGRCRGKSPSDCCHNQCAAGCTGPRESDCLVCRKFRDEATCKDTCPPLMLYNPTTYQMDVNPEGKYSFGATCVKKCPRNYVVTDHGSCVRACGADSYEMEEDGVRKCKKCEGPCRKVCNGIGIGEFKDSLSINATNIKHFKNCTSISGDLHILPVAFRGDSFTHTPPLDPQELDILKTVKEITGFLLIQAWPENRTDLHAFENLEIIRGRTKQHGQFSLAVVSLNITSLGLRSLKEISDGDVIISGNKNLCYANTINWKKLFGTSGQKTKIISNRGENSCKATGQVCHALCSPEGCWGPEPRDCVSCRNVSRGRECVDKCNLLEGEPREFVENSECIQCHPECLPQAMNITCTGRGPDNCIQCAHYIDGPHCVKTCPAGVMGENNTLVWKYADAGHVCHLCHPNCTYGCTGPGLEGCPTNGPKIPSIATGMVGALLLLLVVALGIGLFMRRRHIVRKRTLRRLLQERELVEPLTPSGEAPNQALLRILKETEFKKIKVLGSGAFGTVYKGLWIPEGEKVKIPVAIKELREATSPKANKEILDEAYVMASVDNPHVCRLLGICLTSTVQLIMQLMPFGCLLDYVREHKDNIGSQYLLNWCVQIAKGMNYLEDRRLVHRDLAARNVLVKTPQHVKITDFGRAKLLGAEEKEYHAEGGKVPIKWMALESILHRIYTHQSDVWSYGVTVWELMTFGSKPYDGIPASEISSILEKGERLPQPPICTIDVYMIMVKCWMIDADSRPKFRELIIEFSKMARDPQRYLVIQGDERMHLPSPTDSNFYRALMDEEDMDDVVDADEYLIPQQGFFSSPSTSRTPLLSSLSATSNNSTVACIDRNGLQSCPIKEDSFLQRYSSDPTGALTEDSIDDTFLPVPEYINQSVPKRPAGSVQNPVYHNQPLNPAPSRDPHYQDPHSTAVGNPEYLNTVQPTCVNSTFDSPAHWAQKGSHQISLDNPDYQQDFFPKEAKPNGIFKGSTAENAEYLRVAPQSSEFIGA
For experiment [2], the target named is human EGFR (native sequence) (Homo sapiens, UniProt P00533). Kind of experiment: Kinase inhibitory activity against human EGFR (native sequence). The format is biochemical. Conditions: 10 μM ATP, read-out: IC50 for kinase inhibition, EGFR. Put shortly: as §1
human EGFR (native sequence), sequence (P00533 25-1210): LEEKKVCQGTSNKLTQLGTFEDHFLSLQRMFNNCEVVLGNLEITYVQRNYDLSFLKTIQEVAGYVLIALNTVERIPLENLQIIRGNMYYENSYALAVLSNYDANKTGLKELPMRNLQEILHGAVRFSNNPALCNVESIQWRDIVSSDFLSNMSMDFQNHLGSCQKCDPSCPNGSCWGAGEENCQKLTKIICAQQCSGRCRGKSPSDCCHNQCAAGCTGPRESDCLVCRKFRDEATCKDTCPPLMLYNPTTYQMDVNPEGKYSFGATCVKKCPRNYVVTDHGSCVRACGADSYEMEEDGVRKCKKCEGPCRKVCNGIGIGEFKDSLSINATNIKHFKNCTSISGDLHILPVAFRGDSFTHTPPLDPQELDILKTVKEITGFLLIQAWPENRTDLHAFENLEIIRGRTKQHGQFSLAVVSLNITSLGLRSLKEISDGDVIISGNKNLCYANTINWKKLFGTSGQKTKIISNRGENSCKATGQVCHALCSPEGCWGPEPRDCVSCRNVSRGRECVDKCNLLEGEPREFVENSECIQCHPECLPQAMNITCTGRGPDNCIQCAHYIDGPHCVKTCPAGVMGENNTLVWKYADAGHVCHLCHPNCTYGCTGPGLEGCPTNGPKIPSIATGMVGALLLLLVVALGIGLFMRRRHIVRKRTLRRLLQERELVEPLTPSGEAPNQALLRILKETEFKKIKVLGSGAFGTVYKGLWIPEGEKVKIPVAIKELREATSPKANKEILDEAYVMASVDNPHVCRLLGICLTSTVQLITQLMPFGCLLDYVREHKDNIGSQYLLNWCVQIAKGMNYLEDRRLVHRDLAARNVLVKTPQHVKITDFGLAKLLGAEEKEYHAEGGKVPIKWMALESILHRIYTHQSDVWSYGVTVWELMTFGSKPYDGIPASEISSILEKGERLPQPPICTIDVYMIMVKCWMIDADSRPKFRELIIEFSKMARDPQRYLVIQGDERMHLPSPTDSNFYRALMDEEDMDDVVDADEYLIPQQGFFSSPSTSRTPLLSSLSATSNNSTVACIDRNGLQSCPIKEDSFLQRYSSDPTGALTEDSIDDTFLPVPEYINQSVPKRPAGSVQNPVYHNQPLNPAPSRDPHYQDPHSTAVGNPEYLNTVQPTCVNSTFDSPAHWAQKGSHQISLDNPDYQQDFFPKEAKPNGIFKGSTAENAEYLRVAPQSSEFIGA
The test system of experiment [3] is BaF3 cells expressing wildtype EGFR. Kind of experiment: Antiproliferative activity (MTT) against control BaF3 cells expressing wildtype EGFR. The format is cell-based. To be noted: Mus musculus. Summed up:
(§2)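 MTT read-out; BaF3 lines carrying EGFR mutations vs wildtype-EGFR BaF3 control.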

The target of experiment [4] is T1, BaF3 cells expressing the target EGFR mutations (Homo sapiens, UniProt P00533, T790M/L858R, cells depend on it).
T1 construct: IC50, BAF3 EGFR L858R-T790M PURO POOL; other: BAF3 EGFR L858R-T790M PURO POOL cells, MTT; IC50, BAF3 EGFR L858R-T790M PURO POOL; other: BAF3 EGFR L858R-T790M PURO POOL cells; MTT
T1 sequence (P00533 whole entry T790M/L858R): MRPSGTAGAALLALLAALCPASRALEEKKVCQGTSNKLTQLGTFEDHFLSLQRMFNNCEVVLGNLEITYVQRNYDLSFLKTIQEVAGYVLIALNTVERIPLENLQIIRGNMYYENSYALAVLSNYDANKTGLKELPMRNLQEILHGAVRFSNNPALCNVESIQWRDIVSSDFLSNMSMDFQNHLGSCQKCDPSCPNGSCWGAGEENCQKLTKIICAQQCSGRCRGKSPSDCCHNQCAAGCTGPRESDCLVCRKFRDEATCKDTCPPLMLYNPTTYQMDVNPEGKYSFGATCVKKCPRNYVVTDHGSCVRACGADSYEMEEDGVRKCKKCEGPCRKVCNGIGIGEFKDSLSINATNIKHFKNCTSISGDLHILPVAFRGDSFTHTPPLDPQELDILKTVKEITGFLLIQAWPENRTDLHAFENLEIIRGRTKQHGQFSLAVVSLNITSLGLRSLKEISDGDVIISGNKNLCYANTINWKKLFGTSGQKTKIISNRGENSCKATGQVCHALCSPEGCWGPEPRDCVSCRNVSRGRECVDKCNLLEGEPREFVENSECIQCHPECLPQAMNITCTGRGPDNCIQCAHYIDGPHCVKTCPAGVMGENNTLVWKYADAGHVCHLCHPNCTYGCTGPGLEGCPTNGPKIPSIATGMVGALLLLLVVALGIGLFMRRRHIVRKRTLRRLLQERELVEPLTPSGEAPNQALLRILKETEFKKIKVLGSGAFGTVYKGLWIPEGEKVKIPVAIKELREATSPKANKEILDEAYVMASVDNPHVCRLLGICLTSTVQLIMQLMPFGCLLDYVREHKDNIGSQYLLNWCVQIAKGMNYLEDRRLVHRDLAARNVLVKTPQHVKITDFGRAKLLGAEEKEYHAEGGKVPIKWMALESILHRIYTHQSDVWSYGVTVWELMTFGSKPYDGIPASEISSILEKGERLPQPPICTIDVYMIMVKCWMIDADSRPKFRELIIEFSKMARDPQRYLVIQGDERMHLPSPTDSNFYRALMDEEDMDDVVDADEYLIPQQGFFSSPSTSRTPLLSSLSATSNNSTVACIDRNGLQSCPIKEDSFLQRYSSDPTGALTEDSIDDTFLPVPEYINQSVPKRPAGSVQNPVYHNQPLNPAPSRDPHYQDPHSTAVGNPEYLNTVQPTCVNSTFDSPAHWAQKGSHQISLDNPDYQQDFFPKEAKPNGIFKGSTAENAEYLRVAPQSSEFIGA
Kind of experiment: Antiproliferative activity (MTT) against BaF3 cells expressing the target EGFR mutations. The format is cell-based. To be noted: BAF3 EGFR L858R-T790M PURO POOL cells, read-out: IC50, BAF3 EGFR L858R-T790M PURO POOL. Put shortly: as §2

For experiment [5], the target named is T2, BaF3 cells expressing the target EGFR mutations (Homo sapiens, UniProt P00533, T790M, cells depend on it, form not given).
T2 construct: IC50, BAF3 EGFR DEL T790M PURO POOL; other: BAF3 EGFR DEL T790M PURO POOL cells, MTT; other: BAF3 EGFR DEL T790M PURO POOL cells; MTT
Described as above. It counts as cell-based. To be noted: BAF3 EGFR DEL T790M PURO POOL cells, read-out: IC50, BAF3 EGFR DEL T790M PURO POOL. Put shortly: as §2

For experiment [6], the target named is EGFR L858R (Homo sapiens, UniProt P00533, L858R). Nature of the experiment: Kinase inhibitory activity against EGFR bearing the L858R mutation. It counts as biochemical. To be noted: 10 μM ATP, read-out: IC50 for kinase inhibition, EGFR L858R. Put shortly:
as §1

Where [7] appears, read: EGFR L858R/T790M double mutation.
[8] abbreviates: 10 pt curves, 3 μM top concentration.

EGFR L858R, sequence (P00533 25-1210 L858R): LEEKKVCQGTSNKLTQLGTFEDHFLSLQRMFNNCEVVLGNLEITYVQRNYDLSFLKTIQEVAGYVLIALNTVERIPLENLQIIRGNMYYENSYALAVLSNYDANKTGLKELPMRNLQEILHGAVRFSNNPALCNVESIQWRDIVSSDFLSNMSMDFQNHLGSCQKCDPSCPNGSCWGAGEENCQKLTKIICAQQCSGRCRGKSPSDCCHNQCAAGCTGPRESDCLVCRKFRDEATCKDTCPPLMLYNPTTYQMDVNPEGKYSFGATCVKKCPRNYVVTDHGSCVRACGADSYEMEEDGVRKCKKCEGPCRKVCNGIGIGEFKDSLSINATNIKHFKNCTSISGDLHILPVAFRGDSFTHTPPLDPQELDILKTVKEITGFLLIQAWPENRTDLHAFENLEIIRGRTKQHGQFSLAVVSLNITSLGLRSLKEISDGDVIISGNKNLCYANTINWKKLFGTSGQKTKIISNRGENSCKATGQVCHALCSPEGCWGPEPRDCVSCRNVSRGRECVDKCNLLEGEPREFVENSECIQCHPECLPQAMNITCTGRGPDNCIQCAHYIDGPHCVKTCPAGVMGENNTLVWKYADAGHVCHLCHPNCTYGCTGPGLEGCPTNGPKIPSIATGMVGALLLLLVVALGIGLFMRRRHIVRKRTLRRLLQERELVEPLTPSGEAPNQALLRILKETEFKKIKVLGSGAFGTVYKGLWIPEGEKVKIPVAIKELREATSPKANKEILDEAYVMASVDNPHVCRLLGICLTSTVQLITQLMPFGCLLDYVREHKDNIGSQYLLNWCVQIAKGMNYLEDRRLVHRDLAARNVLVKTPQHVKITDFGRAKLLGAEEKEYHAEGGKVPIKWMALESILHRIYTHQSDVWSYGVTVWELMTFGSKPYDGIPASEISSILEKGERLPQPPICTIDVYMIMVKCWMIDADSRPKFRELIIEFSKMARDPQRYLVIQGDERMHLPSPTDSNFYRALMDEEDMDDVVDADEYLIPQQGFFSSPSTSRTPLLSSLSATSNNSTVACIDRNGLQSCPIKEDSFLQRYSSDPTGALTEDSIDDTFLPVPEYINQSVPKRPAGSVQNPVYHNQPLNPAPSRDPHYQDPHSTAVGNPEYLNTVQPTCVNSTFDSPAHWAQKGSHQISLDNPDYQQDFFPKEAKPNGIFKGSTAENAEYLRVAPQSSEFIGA

Broadly, the IC50 is the concentration needed to halve the response being measured. In the case of `C=CC(=O)Nc1cc(Nc2ncc(Cl)c(Nc3ccccc3P(C)(C)=O)n2)c(OC)cc1N1CCCN(C)CC1` [Example 25, N-(5-((5-chloro-4-((2-(dimethylphosphoryl)phenyl)amino)pyrimidin-2-yl)amino)-4-methoxy-2-(4-methyl-1,4-diazepan-1-yl)phenyl)acrylamide], the IC50 in experiment [1] (setting [7]) was under 0.05 µM; in experiment [2] (human EGFR native sequence), under 0.05 µM; in experiment [3] (BAF3 PARENTAL cells (control)) it was at least 0.25 µM; in experiment [6] (EGFR L858R), under 0.05 µM. In addition, the GI50 in experiment [4] and in experiment [5] was under 0.05 µM throughout.
On to `C=CC(=O)Nc1cc(Nc2ncc(Cl)c(Nc3ccccc3P(C)(C)=O)n2)c(Cl)cc1C#CCN(C)C` [Example 156, N-(4-chloro-5-((5-chloro-4-((2-(dimethylphosphoryl)phenyl)amino)pyrimidin-2-yl)amino)-2-(3-(dimethylamino)prop-1-yn-1-yl)phenyl)acrylamide], for which the IC50 in experiment [1] (setting [8]) is under 0.05 µM; in experiment [2] (setting [8]), under 0.05 µM; in experiment [3] (BAF3 parental cells), at least 0.25 µM; in experiment [6] (setting [8]) it was under 0.05 µM. For the same compound, the GI50 in experiment [4] and in experiment [5] was under 0.05 µM in each case.
Regarding `C=CC(=O)Nc1cc(Nc2ncc(Cl)c(Nc3ccccc3P(C)(C)=O)n2)c(OC)cc1OC(CF)CN(CC)CC` (stereo not drawn) [Example 121, N-(5-((5-chloro-4-((2-(dimethylphosphoryl)phenyl)amino)pyrimidin-2-yl)amino)-2-((1-(diethylamino)-3-fluoropropan-2-yl)oxy)-4-methoxyphenyl)acrylamide], the IC50 in experiment [1] (setting [8]) is under 0.05 µM; in experiment [2] (setting [8]), under 0.05 µM; in experiment [3] (BAF3 parental cells), at least 0.25 µM; in experiment [6] (setting [8]), under 0.05 µM. Moreover, the GI50 in experiment [4] and in experiment [5] was under 0.05 µM throughout.
Turning to `COc1ccc(NC(=O)C2=CCCCC2)cc1Nc1ncc(Cl)c(Nc2ccccc2P(C)(C)=O)n1` [Example 79, N-(3-((5-chloro-4-((2-(dimethylphosphoryl)phenyl)amino)pyrimidin-2-yl)amino)-4-methoxyphenyl)cyclohex-1-enecarboxamide], the IC50 in experiment [1] (setting [7]), in experiment [2] (human EGFR native sequence), in experiment [3] (BAF3 PARENTAL cells (control)) and in experiment [6] (EGFR L858R) was at least 0.25 µM throughout. Also, the GI50 in experiment [4] and in experiment [5] was at least 0.25 µM throughout.
With `C=CC(=O)Nc1cc(Nc2ncc(Cl)c(Nc3ccccc3P(C)(C)=O)n2)c(OC)cc1N1CCC(N(C)CCN(CC)CC)C1` (stereo not drawn) [Example 38, N-(5-((5-chloro-4-((2-(dimethylphosphoryl)phenyl)amino)pyrimidin-2-yl)amino)-2-(3-((2-(diethylamino)ethyl)(methyl)amino)pyrrolidin-1-yl)-4-methoxyphenyl)acrylamide], the half-inhibitory concentration (IC50) in experiment [1] (setting [7]) is under 0.05 µM; in experiment [2] (human EGFR native sequence), under 0.05 µM; in experiment [3] (BAF3 PARENTAL cells (control)), at least 0.25 µM; in experiment [6] (EGFR L858R), under 0.05 µM. The GI50 was 0.101 to 0.25 µM in experiment [4] and under 0.05 µM in experiment [5].
With `C=CC(=O)Nc1cc(Nc2ncc(Cl)c(Nc3ccccc3P(C)(C)=O)n2)c(OC)cc1OCCN1CCCCC1` [Example 8, N-(5-((5-chloro-4-((2-(dimethylphosphoryl)phenyl)amino)pyrimidin-2-yl)amino)-4-methoxy-2-(2-(piperidin-1-yl)ethoxy)phenyl)acrylamide], the half-inhibitory concentration (IC50) in experiment [1] (setting [7]) was under 0.05 µM; in experiment [2] (human EGFR native sequence), under 0.05 µM; in experiment [3] (BAF3 PARENTAL cells (control)), at least 0.25 µM; in experiment [6] (EGFR L858R), under 0.05 µM. Further, the GI50 in experiment [4] and in experiment [5] was under 0.05 µM in each case.
On to `C=CC(=O)Nc1cc(Nc2ncc(Cl)c(Nc3ccccc3P(C)(C)=O)n2)c(OC)cc1OCc1ccncc1` [Example 11, N-(5-((5-chloro-4-((2-(dimethylphosphoryl)phenyl)amino)pyrimidin-2-yl)amino)-4-methoxy-2-(pyridin-4-ylmethoxy)phenyl)acrylamide], for which the IC50 is under 0.05 µM in experiment [1] (setting [7]), under 0.05 µM in experiment [2] (human EGFR native sequence), at least 0.25 µM in experiment [3] (BAF3 PARENTAL cells (control)) and under 0.05 µM in experiment [6] (EGFR L858R). The GI50 in experiment [4] is 0.101 to 0.25 µM; in experiment [5] it was under 0.05 µM.
